Toxic doses and inconclusive results are not listed. Rule as the data show it: active = T/C of 150% or more; inactive = T/C below 125%.
Test system: L1210 leukemia ip in BDF1 mice, survival T/C
Assay: NCI In Vivo Anticancer Drug Screen. Data for tumor model L1210 Leukemia (intraperitoneal) in B6D2F1 (BDF1) mice
Conditions: endpoint: mean survival time, higher = longer survival
Method in brief: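 Tumor was transplanted into mice, which were then dosed with test compound or vehicle alone. Survival was recorded for each group, and the treated figure was expressed relative to the control figure.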

[1] = dose: 100.0 mg/kg/injection, schedule: Q04DX002 (ip), vehicle: Klucel (hydroxypropylcellulose) (HPC)
[2] = dose: 100.0 mg/kg/injection, schedule: Q01DX001 (ip), vehicle: saline
[3] = dose: 200.0 mg/kg/injection, schedule: Q01DX001 (ip), vehicle: saline
[4] = dose: 400.0 mg/kg/injection, schedule: Q01DX001 (ip), vehicle: saline
[5] = dose: 100.0 mg/kg/injection, schedule: Q01DX009 (ip), vehicle: saline with Tween-80
[6] = dose: 100.0 mg/kg/injection, schedule: Q04DX003 (ip), vehicle: saline with Tween-80
[7] = dose: 200.0 mg/kg/injection, schedule: Q01DX009 (ip), vehicle: saline with Tween-80
[8] = dose: 200.0 mg/kg/injection, schedule: Q04DX003 (ip), vehicle: saline with Tween-80
[9] = dose: 400.0 mg/kg/injection, schedule: Q01DX009 (ip), vehicle: saline with Tween-80
[10] = dose: 400.0 mg/kg/injection, schedule: Q04DX003 (ip), vehicle: saline with Tween-80
[11] = dose: 100.0 mg/kg/injection, schedule: Q01DX009 (ip), vehicle: Klucel (hydroxypropylcellulose) (HPC)
[12] = dose: 200.0 mg/kg/injection, schedule: Q01DX009 (ip), vehicle: Klucel (hydroxypropylcellulose) (HPC)
[13] = dose: 400.0 mg/kg/injection, schedule: Q01DX009 (ip), vehicle: Klucel (hydroxypropylcellulose) (HPC)
[14] = dose: 50.0 mg/kg/injection, schedule: Q01DX009 (ip), vehicle: saline
[15] = dose: 100.0 mg/kg/injection, schedule: Q01DX009 (ip), vehicle: saline
[16] = dose: 200.0 mg/kg/injection, schedule: Q01DX009 (ip), vehicle: saline
[17] = dose: 100.0 mg/kg/injection, schedule: Q04DX003 (ip), vehicle: saline

Measured: T/C

O=Cc1ccc(OCc2ccccc2)cc1
inactive: [1] 96 % of control | dose: 200.0 mg/kg/injection, schedule: Q04DX002 (ip), vehicle: Klucel (hydroxypropylcellulose) (HPC) 96 % of control | dose: 400.0 mg/kg/injection, schedule: Q04DX002 (ip), vehicle: Klucel (hydroxypropylcellulose) (HPC) 92 % of control

O=C(O)C1CCCN1O (configuration not stated)
inactive: [2] 104 % of control | [3] 98 % of control | [4] 98 % of control

COc1ccc(OC(=O)Nc2c(C)cccc2C)cc1
inactive: [5] 95 % of control | [6] 98 % of control | [7] 91 % of control | [8] 105 % of control | [9] 94 % of control | [10] 100 % of control

c1ccc(P(=NC2CCCCCC2)(c2ccccc2)c2ccccc2)cc1
inactive: dose: 100.0 mg/kg/injection, schedule: Q01DX001 (ip), vehicle: acetone 95 % of control | dose: 200.0 mg/kg/injection, schedule: Q01DX001 (ip), vehicle: acetone 94 % of control

CN(CCNC(=O)C1CCCCC1C(=O)O)c1ccccc1 (configuration not stated)
inactive: [11] 98 % of control | [12] 92 % of control | [13] 96 % of control

COCC1OC(OC2OCC3OC4(OCC(O)(C(C)OC)C5OCOC54)OC3C2OC)C(OC)C(O)C1OC1OC(C)C(OC)C(OC2OC(C)C3OC4(CC(O)C(OC5CC(OC6CC(C)([N+](=O)[O-])C(OC)C(C)O6)C(OC(=O)c6c(C)c(Cl)c(O)c(Cl)c6OC)C(C)O5)C(C)O4)OC3(C)C2O)C1O (configuration not stated)
inactive: [14] 106 % of control | [15] 106 % of control | [16] 96 % of control

CC(C)(/C=N/NC(N)=O)c1ccccc1
inactive: dose: 50.0 mg/kg/injection, schedule: Q01DX001 (ip), vehicle: Klucel (hydroxypropylcellulose) (HPC) 96 % of control | dose: 100.0 mg/kg/injection, schedule: Q01DX001 (ip), vehicle: Klucel (hydroxypropylcellulose) (HPC) 102 % of control | dose: 200.0 mg/kg/injection, schedule: Q01DX001 (ip), vehicle: Klucel (hydroxypropylcellulose) (HPC) 96 % of control

CC(=O)Oc1ccc(/C=C/c2ccncc2)cc1
inactive: [11] 97 % of control | [12] 100 % of control | [13] 104 % of control

Nc1nc2nc(I)[nH]c2c(=O)[nH]1
inactive: dose: 5.0 mg/kg/injection, schedule: Q01DX001 (ip), vehicle: saline 98 % of control | dose: 10.0 mg/kg/injection, schedule: Q01DX001 (ip), vehicle: saline 102 % of control | dose: 20.0 mg/kg/injection, schedule: Q01DX001 (ip), vehicle: saline 98 % of control | dose: 40.0 mg/kg/injection, schedule: Q01DX001 (ip), vehicle: saline 103 % of control

CC1=CC23C(COC(=O)C24CO4)C(C(=O)O)=CC3C1C (configuration not stated) (tested in a mixture with another compound)
inactive: dose: 1.2 mg/kg/injection, schedule: Q01DX001 (ip), vehicle: saline 101 % of control | dose: 2.5 mg/kg/injection, schedule: Q01DX001 (ip), vehicle: saline 100 % of control

S=P(Oc1cc(Cl)c(Cl)cc1Cl)(N1CCN(c2ccccc2)CC1)N1CCN(c2ccccc2)CC1
inactive: [2] 90 % of control | [3] 90 % of control | [4] 88 % of control

O=C(c1ccccc1)c1ccc(O)cc1
inactive: [11] 93 % of control | dose: 100.0 mg/kg/injection, schedule: Q04DX003 (ip), vehicle: Klucel (hydroxypropylcellulose) (HPC) 103 % of control | [12] 93 % of control | dose: 200.0 mg/kg/injection, schedule: Q04DX003 (ip), vehicle: Klucel (hydroxypropylcellulose) (HPC) 100 % of control | [13] 100 % of control | dose: 400.0 mg/kg/injection, schedule: Q04DX003 (ip), vehicle: Klucel (hydroxypropylcellulose) (HPC) 103 % of control

O=C(NNS(=O)(=O)c1ccccc1)C1Oc2ccccc2O1
inactive: dose: 25.0 mg/kg/injection, schedule: Q04DX002 (ip), vehicle: Klucel (hydroxypropylcellulose) (HPC) 96 % of control | dose: 50.0 mg/kg/injection, schedule: Q04DX002 (ip), vehicle: Klucel (hydroxypropylcellulose) (HPC) 93 % of control | [1] 101 % of control

Nc1cc(Nc2cccc(Cl)c2)nc(N)n1
inactive: dose: 100.0 mg/kg/injection, schedule: Q01DX001 (ip), vehicle: carboxymethylcellulose (CMC) 94 % of control

NCCCC(NC(=O)CCCCCCCCN=C(N)N)C(O)CCCCCCCCN=C(N)N (configuration not stated)
inactive: dose: 0.38 mg/kg/injection, schedule: Q01DX Z (ip), vehicle: carboxymethylcellulose (CMC) 102 % of control | dose: 0.75 mg/kg/injection, schedule: Q01DX Z (ip), vehicle: carboxymethylcellulose (CMC) 94 % of control | dose: 1.5 mg/kg/injection, schedule: Q01DX Z (ip), vehicle: carboxymethylcellulose (CMC) 96 % of control | dose: 3.0 mg/kg/injection, schedule: Q01DX Z (ip), vehicle: carboxymethylcellulose (CMC) 107 % of control | dose: 5.0 mg/kg/injection, schedule: Q01DX001 (ip), vehicle: carboxymethylcellulose (CMC) 94 % of control | dose: 6.0 mg/kg/injection, schedule: Q01DX Z (ip), vehicle: carboxymethylcellulose (CMC) 121 % of control | dose: 10.0 mg/kg/injection, schedule: Q01DX001 (ip), vehicle: carboxymethylcellulose (CMC) 100 % of control | dose: 20.0 mg/kg/injection, schedule: Q01DX001 (ip), vehicle: carboxymethylcellulose (CMC) 103 % of control

CCC[CH2][Sn]([Cl])([Cl])[CH2]CCC
inactive: dose: 2.5 mg/kg/injection, schedule: Q01DX009 (ip), vehicle: saline with Tween-80 100 % of control | dose: 5.0 mg/kg/injection, schedule: Q01DX009 (ip), vehicle: saline with Tween-80 95 % of control | dose: 5.0 mg/kg/injection, schedule: Q04DX003 (ip), vehicle: saline with Tween-80 104 % of control | dose: 10.0 mg/kg/injection, schedule: Q01DX009 (ip), vehicle: saline with Tween-80 95 % of control | dose: 10.0 mg/kg/injection, schedule: Q04DX003 (ip), vehicle: saline with Tween-80 101 % of control | dose: 20.0 mg/kg/injection, schedule: Q04DX003 (ip), vehicle: saline with Tween-80 119 % of control

CN1CCC2=C(C1)C(c1ccccc1)c1ccccc12 (configuration not stated)
inactive: dose: 25.0 mg/kg/injection, schedule: Q01DX009 (ip), vehicle: saline 90 % of control | [14] 95 % of control | dose: 50.0 mg/kg/injection, schedule: Q04DX003 (ip), vehicle: saline 106 % of control | [15] 102 % of control | [17] 106 % of control

CCCCCCCCC(CO)CCCCCC (configuration not stated)
inactive: [17] 100 % of control | dose: 200.0 mg/kg/injection, schedule: Q04DX003 (ip), vehicle: saline 106 % of control | dose: 400.0 mg/kg/injection, schedule: Q04DX003 (ip), vehicle: saline 92 % of control

CC(C)N(C(=S)S)C(C)C
inactive: [15] 105 % of control | [16] 102 % of control | dose: 400.0 mg/kg/injection, schedule: Q01DX009 (ip), vehicle: saline 103 % of control

CCOC(=O)c1ccc(OC(=O)Nc2ccccc2)cc1
inactive: [5] 98 % of control | [6] 98 % of control | [7] 96 % of control | [8] 95 % of control | [9] 90 % of control | [10] 91 % of control

CC(=O)Oc1cn(C)c2c1C(=O)CC(C)(C)C2
inactive: dose: 75.0 mg/kg/injection, schedule: Q04DX002 (ip), vehicle: Klucel (hydroxypropylcellulose) (HPC) 94 % of control | dose: 150.0 mg/kg/injection, schedule: Q04DX002 (ip), vehicle: Klucel (hydroxypropylcellulose) (HPC) 105 % of control | dose: 300.0 mg/kg/injection, schedule: Q04DX002 (ip), vehicle: Klucel (hydroxypropylcellulose) (HPC) 97 % of control

COCCOCCOCCOCCOCCOC
inactive: dose: 12.5 mg/kg/injection, schedule: Q01DX009 (ip), vehicle: saline with Tween-80 104 % of control | dose: 25.0 mg/kg/injection, schedule: Q01DX009 (ip), vehicle: saline with Tween-80 94 % of control | dose: 50.0 mg/kg/injection, schedule: Q01DX009 (ip), vehicle: saline with Tween-80 105 % of control

Reference: PubChem BioAssay AID248 (DTP/NCI, 2004)
